This note sets out measurements from patent US20220243211A1, “PEPTIDE NUCLEIC ACID COMPOSITIONS WITH MODIFIED HOOGSTEEN BINDING SEGMENTS AND METHODS OF USE THEREOF” (Yale University, priority 2019, published 2022).

The series relates to CFBE cells. Nature of the series: Comet assay for DNA damage. The class given is cell-based, human. Conditions: versus untreated cells. On the procedure:
FIG. 6 is a bar graph showing the results of a comet assay for DNA damage. TriTek Comet Score FreeWare was used to calculate comet tail moment for each treatment condition. Plots show the average comet tail moment which indicates the extent of DNA damage. Error bars represent the SEM; ****P<0.0001 by unpaired t-test.
50,000 CFBE cells were plated per well in 6-well plates. The following day, the cells were treated with the indicated PNA containing NPs, treated with lipfectamine alone, or transfected with CRISPR-based editing reagents. The next day, cells were collected and prepared using the Trevigen Comet Assay kit per the manufacturer's protocol (Trevigen, Gaithersburg, Md.). Briefly, cells were suspended in agarose and added to comet slides. After the agarose solidified, the slides were incubated for 1 hour in lysis solution, placed in electrophoresis solution for 30 min, then run at 21 V for 1 hour at 4° C. The slides were then placed in acetate solution for 30 min, then incubated in 70% ethanol solution for 30 min. The comet slides were then dried, stained with SYBR Green for 30 min and then visualized using an EVOS microscope. TriTek Comet Score freeware was used to analyze the images. The average comet tail moment was plotted for each condition. Error bars represent the SEM; ****P<0.0001 by unpaired t-test. […]

Take “H-KKK-TJTJJTTT-OOO-TTTCCTCTATGGGTAAG-KKK-NH2 [γhCF PNA-h] (TNTNNTTTTTTCCTCTATGGGTAAG; listed as DNA, chemistry not fully specified) [tail clamp PNA targeting human CFTR gene with MPγ monomers in Hoogsteen domain]”: the comet tail moment result is “no significant change in comet tail moment”.
